Data as given in patent US7776902B2, “Nitrooxyderivatives of cyclooxygenase-2 inhibitors” (Nicox S.A., priority 2002, dated 2010).

Columns and labels:
[1] = Gastric tolerability after two weeks oral treatment in L-NAME hypertensive rats; type: in vivo; conditions: 10 mg/kg daily for two weeks, hypertension induced by L-NAME 400 mg/liter in drinking water
Procedure: (§1) The experiment was carried out according to the method described by M. N. Muscarà et al. Br. J. Pharmacol. 133, 1314, 2001, and employing groups of 10 rats weighing each 200-250 g.
(§2) The compounds, suspended in 1% carboxymethylcellulose, were administered orally for two weeks at a daily dose of 10 mg/kg body weight.
(§3) Hypertension was induced by addition of L-NAME (N-omega-nitro-L-arginine methylester) to the drinking water at a concentration of 400 mg/liter. At the end of the treatment, the blood pressure was determined by introduction of a cannula into femoral artery and measurement with polygraphic transducer, 16 hours after the last administration.

[2] = Blood pressure effect after two weeks oral treatment in L-NAME hypertensive rats; type: in vivo; conditions: 10 mg/kg daily for two weeks, L-NAME in drinking water, femoral artery cannula, 16 hours after the last administration
Procedure: as §1, §2, §3

Structure (SMILES) | gastric tolerability [1] | effect on blood pressure [2] | gastric damage, share of the treated animals [1] | increase of the blood pressure (average) [2]
Cc1ccc(-c2cc(C(F)(F)F)nn2-c2ccc(S(=O)(=O)NC(=O)CCCO[N+](=O)[O-])cc2)cc1 [Example 4, N-[4-[5-(4-methylphenyl)-3-(trifluoromethyl)-1H-pyrazol-1-yl]phenylsulfonyl]-4-nitrooxy-butanamide] | well tolerated | no increase of the blood pressure |  | 
Cc1ccc(-c2cc(C(F)(F)F)nn2-c2ccc(S(N)(=O)=O)cc2)cc1 [celecoxib, 4-[5-(4-methylphenyl)-3-(trifluoromethyl)-1H-pyrazol-1-yl]benzenesulfon-amide] |  |  | 80% | 15 mmHg
